Source: ChEMBL document CHEMBL1155100, “Design and synthesis of novel 3-hydroxy-cyclobut-3-ene-1,2-dione derivatives as thyroid hormone receptor beta (TR-beta) selective ligands” (Bioorg Med Chem Lett, 2008)
pEC50: −log10 of the molar value.

Assays:
[1] = biological target: T1, Thyroid hormone receptor beta (Homo sapiens, UniProt P10828)
T1 sequence (P10828 whole entry): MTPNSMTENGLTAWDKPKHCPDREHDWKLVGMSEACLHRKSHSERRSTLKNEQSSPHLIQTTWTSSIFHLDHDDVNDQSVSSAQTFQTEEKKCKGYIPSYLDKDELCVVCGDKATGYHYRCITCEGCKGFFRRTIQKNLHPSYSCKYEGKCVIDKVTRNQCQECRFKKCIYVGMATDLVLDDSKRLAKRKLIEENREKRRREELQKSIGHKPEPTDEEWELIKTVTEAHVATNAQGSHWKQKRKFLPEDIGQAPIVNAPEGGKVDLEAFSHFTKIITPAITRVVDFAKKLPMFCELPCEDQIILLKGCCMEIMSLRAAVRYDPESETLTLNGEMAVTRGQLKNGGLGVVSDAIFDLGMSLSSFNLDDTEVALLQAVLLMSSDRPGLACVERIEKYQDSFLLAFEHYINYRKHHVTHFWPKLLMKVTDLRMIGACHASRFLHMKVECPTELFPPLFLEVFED

[2] = biological target: T2, Thyroid hormone receptor alpha (Homo sapiens, UniProt P10827); assay: Agonist activity at human thyroid hormone receptor alpha expressed in CV1 cells by TRE-luciferase assay; assay type: functional, cell-based, CV-1
T2 sequence (P10827 whole entry): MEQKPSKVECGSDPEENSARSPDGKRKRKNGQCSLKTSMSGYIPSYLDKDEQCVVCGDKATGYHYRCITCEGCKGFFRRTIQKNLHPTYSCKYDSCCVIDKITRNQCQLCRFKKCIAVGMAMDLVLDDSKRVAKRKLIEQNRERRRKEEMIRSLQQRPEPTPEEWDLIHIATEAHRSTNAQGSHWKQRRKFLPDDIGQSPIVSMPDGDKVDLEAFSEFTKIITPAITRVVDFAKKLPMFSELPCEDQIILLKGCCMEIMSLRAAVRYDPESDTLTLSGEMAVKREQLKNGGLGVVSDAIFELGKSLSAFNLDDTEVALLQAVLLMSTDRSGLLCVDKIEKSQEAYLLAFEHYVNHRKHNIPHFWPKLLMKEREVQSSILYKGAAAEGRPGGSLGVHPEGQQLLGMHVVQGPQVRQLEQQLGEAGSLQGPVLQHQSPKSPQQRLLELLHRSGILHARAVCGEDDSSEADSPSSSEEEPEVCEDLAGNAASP

Q: What does the source list for CC(C)c1cc(Oc2c(Cl)cc(Nc3c(O)c(=O)c3=O)cc2Cl)ccc1O?
A: pEC50 [1]: 7.15; pEC50 [2]: 6.65

Q: Which results are given for CC(C)(C)c1cc(Oc2c(Cl)cc(Nc3c(O)c(=O)c3=O)cc2Cl)ccc1O?
A: pEC50 [1]: 6.50; pEC50 [2]: 5.98
